Test results as given in patent US10207011B2, “Methods, systems, and devices for an invertebrate model of traumatic brain injury” (WISCONSIN ALUMNI RESEARCH FOUNDATION, priority 2013, dated 2019).

Tested on: w^1118 flies
Experiment: Mortality after standard TBI protocol in aspirin-fed flies
Type: in vivo, Drosophila
Conditions: 0-3-day old w^1118 flies cultured four days on food with 0.4 ml aspirin (200 mg/ml in DMSO) before standard TBI protocol; FIG. 5
From the text: Based on the data described in Example 2, we designed a standard TBI protocol for administering controlled impacts to generate primary injuries. The standard TBI protocol consisted of four impacts with five min recovery intervals between impacts. Reproducibility and rapidity were the driving forces behind the choice of protocol parameters. […] As a proof of concept for identifying an agent that could reduce the severity of an impact-associated phenotype, e.g., lethality, we tested whether, the non-steroidal anti-inflammatory drug, aspirin, affects TBI outcomes. Flies were treated with aspirin by feeding and then subjected to the standard TBI protocol. 0.4 ml of aspirin (200 mg/ml in DMSO) or DMSO only was added to vials with food and allowed to absorb into the food for two hours. 0-3-day old w^1118 flies, with an approximately equal number of male and female flies, were cultured on the food for four days. Flies were then left untreated or subjected to the standard TBI protocol. […] Thus, aspirin pre-treatment raises the primary injury threshold.

Q: CC(=O)Oc1ccccc1C(=O)O [aspirin] was tested. Which “mortality 24 hours after a controlled impact, relative to DMSO-treated flies” value did it give?
A: lower mortality than the DMSO-treated flies
